Measured values as given in patent US20150190369A1, “QUERCETIN-3-GLUCOSIDE AND USES THEREOF” (priority 2012, published 2015).
“Also recorded” adds a separate entry of the source.

Experiments:
PCSK9 = experiment: Semi-quantitative immunoblotting for cellular PCSK9 in Huh7 cells; type: cell-based, human
Procedure: (§1) At passage, Huh7 cells were routinely seeded at sub-confluence (˜10^6 cells/10-cm dish) in Dulbecco's modified Eagle's medium (DMEM) containing 10% fetal bovine serum (FBS) or LPDS (for experiments) and 50 μg/ml gentamycin. They were incubated overnight at 37° C., in a humidified 5% CO2-95% air atmosphere. Cells were treated or not with Q3G at defined concentrations and for defined lengths of time. Media were collected and centrifuged at 200 g for 5 min to sediment suspended cells; supernatants were collected and supplemented with 0.33 volumes of a 3×-concentrated PIC. Cell monolayers were rinsed with ice-cold phosphate-buffered saline (PBS); they were overlaid with […] the RIPA lysis buffer (50 mM Tris-HCl, pH 8, 150 mM NaCl, 1% NP-40, 0.5% Na-deoxycholate and 0.1% SDS) supplemented with 1× PIC. After 20 min in an ice bath, the lysates were centrifuged at 14,000 g and 4° C. for 20 min, and supernatants were collected. Conditioned media and lysates were stored at −20° C. until analysis.
Cell lysates were fractionated by SDS-PAGE and electrophoretically transferred onto a polyvinylidene fluoride membrane. The membrane was incubated with a goat antihuman LDLR, rabbit anti-PCSK9, or rabbit anti-SREBP-2 polyclonal antibody at 1:1000, 1:1500, and 1:200 dilutions, respectively, and then with a HRP-conjugated heterospecific secondary antibody against the primary Igs at a 1:2000 dilution. It was probed for HRP reaction using the Western Lightning Chemiluminescence Reagent Plus a chemiluminescence-based revelation kit. The signal was captured on X-ray film and immunoreactive bands analyzed by densitometry on a Syngene's ChemiGenius^2XE Bio Imaging System (Cambridge, Mass.) within the dynamic range of the instrument. The membrane was stripped and reprobed with the anti-β-actin monoclonal primary antibody at 1:20,000 dilution and HRP-conjugated rabbit anti-mouse IgG secondary antibody at a 1:5000 dilution. The densitometric values of β-actin bands were using for normalization of experimental samples. […]

ABCG1 mRNA = experiment: qRT-PCR for ABCG1 mRNA in MIN6 β-cells; type: cell-based, mouse; conditions: MIN6, 24 h
Procedure: Mouse insulinoma MIN6 cells were cultured in a 5% CO2-95% air atmosphere at 37° C. in DMEM medium containing 10% heat-inactivated fetal bovine serum, 1 mM Na-pyruvate, 2 mM L-glutamine, 25 mM D-glucose, and 28 μM β-mercaptoethanol. Q3G at a specific final concentration was supplemented to the culture medium and incubation was conducted for a selected length of time. Media were collected, spun at 600 g to sediment suspended cells, supplemented with 0.5 volumes of 3×RIPA-PIC (1×: 50 mM Tris-HCl, pH 8, 150 mM NaCl, 1% NP-40, 0.5% Na-deoxycholate and 0.1% SDS and PIC). Cells were lysed in 1×RIPA-PIC for immuno-blotting, or in RNA extraction buffer for qRT-PCR.
For the mouse studies, the levels of specific mRNAs were quantified in a PCR-based fluorogenic assay using the Taqman technology (Holland et al., 1991). Briefly, total RNA was extracted using the RNeasy extraction kit and reverse-transcribed into cDNA using random hexameric primers and the Superscript II RNase H-Reverse Transcriptase. […] Standard curves were established using varying amounts of pre-quantified amplicons of each transcript. […]
MIN6 β-cells were incubated for 24 h in the presence of different concentrations of Q3G. Total RNA was extracted and analyzed by qRT-PCR for the levels of mRNA for PCSK9, LDLR, ABCA1 and ABCG1.

LDLR = experiment: Semi-quantitative immunoblotting for LDLR protein in Huh7 cell lysates; type: cell-based, human
Procedure: as §1
Cell lysates were fractionated by SDS-PAGE and electrophoretically transferred onto a polyvinylidene fluoride membrane. The membrane was incubated with a goat antihuman LDLR, rabbit anti-PCSK9, or rabbit anti-SREBP-2 polyclonal antibody at 1:1000, 1:1500, and 1:200 dilutions, respectively, and then with a HRP-conjugated heterospecific secondary antibody against the primary Igs at a 1:2000 dilution. It was probed for HRP reaction using the Western Lightning Chemiluminescence Reagent Plus a chemiluminescence-based revelation kit. The signal was captured on X-ray film and immunoreactive bands analyzed by densitometry on a Syngene's ChemiGenius^2XE Bio Imaging System (Cambridge, Mass.) within the dynamic range of the instrument. The membrane was stripped and reprobed with the anti-β-actin monoclonal primary antibody at 1:20,000 dilution and HRP-conjugated rabbit anti-mouse IgG secondary antibody at a 1:5000 dilution. The densitometric values of β-actin bands were using for normalization of experimental samples.
Huh7 cells, hepatocyte derived cellular carcinoma cells, were incubated for 24 h in medium containing 10% lipoprotein-depleted serum (LPDS) and 0 to 10 μM Q3G. The level of LDLR mRNA was measured by quantitative real-time RT-PCR; that of the LDLR protein by semi-quantitative immunoblotting. Exposure to Q3G increased the intracellular content of LDLR mRNA in a concentration-dependent manner; the increase reached a 2× maximum at 2 μM (P<0.01, relative to no Q3G) (FIG. 3A). The content of the corresponding protein followed a similar pattern, but reached a 4× maximum at 4 μM (P<0.005) (FIG. 3B).
The kinetics of cellular accumulation of LDLR and PCSK9 at 2 μM Q3G was also examined: PCSK9 accumulation in the cells began after a 3-h lag; that of LDLR after 6-h lag (FIG. 6).
Statins induce expression of LDLR and PCSK9. […] We examined whether, at a 5 μM concentration of Q3G, simvastatin at 0.2 and 1 μM could further up regulate LDLR expression in Huh7 cells; and, inversely, whether the flavonol can reduce statin-stimulated PCSK9 secretion secreted by Huh7 cells.

[1] = Huh7, 24 h, co-treatment 5 μM Q3G with simvastatin 0.2 and 1 μM

Compound: O=c1c(O[C@@H]2O[C@H](CO)[C@@H](O)[C@H](O)[C@H]2O)c(-c2ccc(O)c(O)c2)oc2cc(O)cc(O)c12 [Q3G, quercetin-3-O-β-D-glucoside]
- lag before PCSK9 accumulation in the cells (PCSK9; Huh7, 2 μM Q3G, time course): 3 h
- amount of cellular PCSK9 (PCSK9; [1]): further increased
- increase of PCSK9 protein in the cells (PCSK9; Huh7, 24 h, highest Q3G concentration tested (0 to 10 μM)): 1.9 ×
- effect on ABCG1 mRNA levels (ABCG1 mRNA; Q3G 8 mM and above): reducing
- increase of ABCG1 mRNA levels (ABCG1 mRNA; Q3G up to 4 mM): about 50%
- lag before LDLR accumulation in the cells (LDLR; Huh7, 2 μM Q3G, time course): 6 h
- increase of LDLR protein content (maximum) (LDLR; Huh7, 24 h, 10% LPDS, 0 to 10 μM Q3G, maximum at 4 μM): 4 ×
- level of cellular LDLR (LDLR; [1]): increased cellular LDLR to the level induced by the flavonol alone
- effect of high concentrations on stimulation of LDLR expression (LDLR; Huh7, 24 h, high Q3G concentrations (>20 NM), concentration-dependent): attenuated; also recorded: attenuation
